Literature values, collected in US9598354B2, “Fumarate compounds, pharmaceutical compositions thereof, and methods of use” (priority 2015, dated 2017).

Question: For `COC(=O)/C=C/C(=O)OC` [DMF, dimethylfumarate], which aqueous solubility is on record?
Answer: poor
